{
  "source": "patent US20240358678A1",
  "about": "“METHODS AND COMPOSITIONS FOR ENHANCING CHEMOTHERAPEUTIC DRUG UPTAKE INTO BRAIN TUMORS” (Brown University, priority 2023, published 2024)",
  "key": {"[1]": {"test_system": "human brain microvascular endothelial cell monolayers", "assay": "RNA sequencing of HBMEC monolayers (Example 3)", "type": "cell-based", "conditions": "BiA 1 μM, 24 hours", "method": "RNA Sequencing (RNAseq): RNA sequencing was performed by the Dana Faber molecular biology core according to their standard methods. RNA was prepared from human brain microvascular endothelial cell monolayers after 24 hours treatment with BiA. EXAMPLE 1 EFFECT OF INDIRUBIN ON THE BLOOD-TUMOR BARRIER (BTB)\nIn order to assess changes in gene expression profiles induced by alterations to barrier functions induced by indirubin, RNA sequencing was performed RNA prepared from human brain microvascular endothelial cell monolayers after 24 hours treatment with BiA. HBMEC monolayers were treated with BiA (1 μM) for 24 hours and gene expression profiles compared with untreated controls."}, "[2]": {"assay": "Hydrophobicity / dissolution in physiological solutions", "type": "physicochemical", "conditions": "difficult to dissolve in physiological solutions"}},
  "data": [
    {"smiles": "CC(=O)ON=C1C(=C2C(=O)Nc3cc(Br)ccc32)Nc2ccccc21", "note": "[BIA, 6-bromoindirubin acetoxime]", "values": [
      {"measurement": "gene expression pathways (TGF-β, Wnt signaling, angiogenesis/BTB)", "setting": "[1]", "value": "alteration to major pathways"},
      {"measurement": "hydrophobicity", "setting": "[2]", "value": "highly hydrophobic"}
    ]}
  ]
}
